Counter-ions that a name gives are not always drawn. Like-named read-outs stand apart in the source and are kept apart here.

The subject of one test is E. coli S30 extract. In words: E. coli S30 extract: inhibition of bacterial protein synthesis (luciferase). Format: biochemical. Conditions: 37° C. 1 hour. A digest of the protocol:
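Coupled transcription-translation in E. coli S30 extract, programmed with pBESTluc plasmid, was run with 8-point 2-fold compound dilutions for 1 h at 37 °C. After a cold stop, luciferase luminescence was read and percent inhibition calculated against no-inhibitor controls.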

The test system of a further test is S. aureus (Sa). In words: Broth microdilution MIC, S. aureus. Format: cell-based. The note with it: Staphylococcus aureus, read-out: Sa + bicarb 25 (MIC). In outline: (§1)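 Following CLSI guidance with slight modification, compounds are serially diluted two-fold (eight steps, triplicate) in CAMHB-based media, some containing 25 mM bicarbonate or 0-50% heat-inactivated human serum. Each well receives 5×10^4 CFU of bacteria pre-grown at 35±2° C to 0.5 McFarland turbidity.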

In a further test the test system is E. coli (Ec). As to the kind of experiment: Broth microdilution MIC, E. coli. It counts as cell-based. The note with it: Escherichia coli, read-out: E. coli + bicarb 25 (MIC). A digest of the protocol:
as §1

The target in test [1] is Rabbit Reticulocyte Lysate. As to the kind of experiment: Rabbit Reticulocyte Lysate: inhibition of eukaryotic protein synthesis (luciferase). Format: biochemical. The note with it: 30° C. 90 minutes, read-out: Retic. IC50. A digest of the protocol: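 Nuclease-treated rabbit reticulocyte lysate translating luciferase control RNA with complete amino acids; compounds in 8-point 2-fold dilutions, 90 min at 30° C. Luminescence read after luciferase reagent; % inhibition versus water (no-inhibitor) control, no-RNA wells as background.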

Another test concerns P. aeruginosa (Pa). As to the kind of experiment: Broth microdilution MIC, P. aeruginosa. Format: cell-based. The note with it: Pseudomonas aeruginosa, read-out: Pa + bicarb 25 (MIC). In outline: as §1
A further test relates to A. baumannii (Ab). As to the kind of experiment: Broth microdilution MIC, A. baumannii. It counts as cell-based. The note with it: Acinetobacter baumannii, read-out: Ab + bicarb 25 (MIC). In outline: as §1
A further test has as its system E. faecalis (Ef). In words: Broth microdilution MIC, E. faecalis. Format: cell-based. Conditions: Enterococcus faecalis, read-out: Ef + bicarb 25 (MIC). A digest of the protocol: as §1

As to `CC(C)(N)C(=O)N1CCN(C(=O)Nc2ccn(C3=CCC(CN4CCC(CCN)CC4)CC3)c(=O)n2)CC1` (stereo not drawn) [Compound 26, 4-(2-Amino-2-methylpropanoyl)-N-(1-(4-((4-(2-aminoethyl)piperidin-1-yl)methyl)cyclohex-1-en-1-yl)-2-oxo-1,2-dihydropyrimidin-4-yl)piperazine-1-carboxamide hydrochloride salt], the IC50 was less than 0.5 µM with E. coli S30 extract and not below 1 µM in test [1]. In addition, the MIC in the test on S. aureus (Sa) is less than 8 µg/mL; in the test on E. coli (Ec), less than 8 µg/mL; in the test with P. aeruginosa (Pa), more than 32 µg/mL; in the test with A. baumannii (Ab), more than 32 µg/mL; in the test with E. faecalis (Ef) it was less than 8 µg/mL.
For the compound `CN(CC1CC=C(n2ccc(NC(=O)N3CCN(C(=O)C(C)(C)N)CC3)nc2=O)CC1)[C@H]1CC[C@H](N)CC1` (stereo partly drawn) [Compound 30, trans-4-(2-Amino-2-methylpropanoyl)-N-(1-(4-(((4-aminocyclohexyl)(methyl)amino)methyl)cyclohex-1-en-1-yl)-2-oxo-1,2-dihydropyrimidin-4-yl)piperazine-1-carboxamide hydrochloride salt], the IC50 in the test on E. coli S30 extract is less than 0.5 µM; in test [1] it was not below 1 µM. The MIC in the test with S. aureus (Sa) was less than 8 µg/mL; in the test with E. coli (Ec) it was less than 8 µg/mL; in the test on P. aeruginosa (Pa), more than 32 µg/mL; with A. baumannii (Ab), more than 32 µg/mL; in the test on E. faecalis (Ef), 8 to 32 µg/mL.
On to `CC(C)(N)C(=O)N1CCN(C(=O)Nc2ccn(C3CCC(CN[C@H]4C[C@H](N)C4)CC3)c(=O)n2)CC1` (stereo partly drawn) [Compound 43, trans-4-(2-Amino-2-methylpropanoyl)-N-(1-(4-(((3-aminocyclobutyl)amino)methyl)cyclohexyl)-2-oxo-1,2-dihydropyrimidin-4-yl)piperazine-1-carboxamide hydrochloride salt], for which the 50% inhibitory concentration (IC50) in the test with E. coli S30 extract is less than 0.5 µM; in test [1], not below 1 µM. Moreover, the MIC is less than 8 µg/mL in the test on S. aureus (Sa); less than 8 µg/mL in the test with E. coli (Ec); more than 32 µg/mL in the test on P. aeruginosa (Pa); more than 32 µg/mL in the test on A. baumannii (Ab); 8 to 32 µg/mL with E. faecalis (Ef).
Take `CC(C)(N)C(=O)N1CCN(C(=O)Nc2ccn(C3CCC(CN[C@H]4C[C@@H](N)C4)CC3)c(=O)n2)CC1` (stereo partly drawn) [Compound 44, cis-4-(2-Amino-2-methylpropanoyl)-N-(1-(4-(((3-aminocyclobutyl)amino)methyl)cyclohexyl)-2-oxo-1,2-dihydropyrimidin-4-yl)piperazine-1-carboxamide hydrochloride salt]: the IC50 in the test on E. coli S30 extract is less than 0.5 µM; in test [1], not below 1 µM. Also, the MIC is less than 8 µg/mL in the test on S. aureus (Sa); less than 8 µg/mL with E. coli (Ec); more than 32 µg/mL in the test on P. aeruginosa (Pa); more than 32 µg/mL in the test with A. baumannii (Ab); 8 to 32 µg/mL in the test on E. faecalis (Ef).
As for `CC(C)(N)C(=O)N1CCN(C(=O)Nc2ccn(C3CCC(CN4CCC5(N)CC5C4)CC3)c(=O)n2)CC1` (stereo not drawn) [Compound 45, 4-(2-Amino-2-methylpropanoyl)-N-(1-(4-((6-amino-3-azabicyclo[4.1.0]heptan-3-yl)methyl)cyclohexyl)-2-oxo-1,2-dihydropyrimidin-4-yl)piperazine-1-carboxamide hydrochloride salt], the IC50 with E. coli S30 extract was less than 0.5 µM; in test [1], not below 1 µM. For the same compound, the MIC with S. aureus (Sa) is less than 8 µg/mL; with E. coli (Ec), less than 8 µg/mL; in the test on P. aeruginosa (Pa), more than 32 µg/mL; with A. baumannii (Ab) it was more than 32 µg/mL; in the test with E. faecalis (Ef), less than 8 µg/mL.
As for `CC(C)(N)C(=O)N1CCN(C(=O)Nc2ccn(C3CCC(CN4CC[C@@H](CN)C4)CC3)c(=O)n2)CC1` (stereo partly drawn) [Compound 46, (S)-4-(2-Amino-2-methylpropanoyl)-N-(1-(4-((3-(aminomethyl)pyrrolidin-1-yl)methyl)cyclohexyl)-2-oxo-1,2-dihydropyrimidin-4-yl)piperazine-1-carboxamide hydrochloride salt], the IC50 was less than 0.5 µM in the test on E. coli S30 extract and not below 1 µM in test [1]. Also, the MIC in the test with S. aureus (Sa) is less than 8 µg/mL; in the test on E. coli (Ec), less than 8 µg/mL; in the test on P. aeruginosa (Pa), more than 32 µg/mL; in the test on A. baumannii (Ab) it was more than 32 µg/mL; in the test with E. faecalis (Ef), more than 32 µg/mL.
Consider `CC(C)(N)C(=O)N1CCN(C(=O)Nc2ccn(C3CCC(CN4CC[C@H](CN)C4)CC3)c(=O)n2)CC1` (stereo partly drawn) [Compound 47, (R)-4-(2-Amino-2-methylpropanoyl)-N-(1-(4-((3-(aminomethyl)pyrrolidin-1-yl)methyl)cyclohexyl)-2-oxo-1,2-dihydropyrimidin-4-yl)piperazine-1-carboxamide Hydrochloride], for which the figures for the IC50 (with E. coli S30 extract; in test [1]) were less than 0.5 µM and not below 1 µM, respectively. In addition, the minimum inhibitory concentration (MIC) is less than 8 µg/mL in the test with S. aureus (Sa); less than 8 µg/mL in the test on E. coli (Ec); more than 32 µg/mL in the test with P. aeruginosa (Pa); more than 32 µg/mL in the test with A. baumannii (Ab); more than 32 µg/mL in the test with E. faecalis (Ef).
As for `CCN(C[C@H]1CC[C@H](n2ccc(NC(=O)N3CCN(C(=O)C(C)(C)N)CC3)nc2=O)CC1)C1CC2(CC(N)C2)C1` (stereo partly drawn) [Compound 50, trans-4-(2-Amino-2-methylpropanoyl)-N-(1-(4-(((6-aminospiro[3.3]heptan-2-yl)(ethyl)amino)methyl)cyclohexyl)-2-oxo-1,2-dihydropyrimidin-4-yl)piperazine-1-carboxamide hydrochloride salt], the IC50 in the test with E. coli S30 extract is less than 0.5 µM; in test [1], not below 1 µM. In addition, the MIC was less than 8 µg/mL with S. aureus (Sa); less than 8 µg/mL with E. coli (Ec); more than 32 µg/mL in the test with P. aeruginosa (Pa); 8 to 32 µg/mL in the test on A. baumannii (Ab); less than 8 µg/mL with E. faecalis (Ef).
In the case of `CC(C)(N)C(=O)N1CCN(C(=O)Nc2ccn([C@H]3CC[C@H](CN4CC[C@H](CN)C4)CC3)c(=O)n2)CC1` [Compound 51, (R)-Trans-4-(2-amino-2-methylpropanoyl)-N-(1-(4-((3-(aminomethyl)pyrrolidin-1-yl)methyl)cyclohexyl)-2-oxo-1,2-dihydropyrimidin-4-yl)piperazine-1-carboxamide Hydrochloride], the IC50 was less than 0.5 µM with E. coli S30 extract and not below 1 µM in test [1]. The MIC was less than 8 µg/mL with S. aureus (Sa); less than 8 µg/mL in the test with E. coli (Ec); more than 32 µg/mL in the test with P. aeruginosa (Pa); more than 32 µg/mL in the test on A. baumannii (Ab); 8 to 32 µg/mL in the test on E. faecalis (Ef).
Regarding `CC(C)(N)C(=O)N1CCN(C(=O)Nc2ccn([C@H]3CC[C@H](CN4CC(N)C4)CC3)c(=O)n2)CC1` [Compound 52, trans-4-(2-Amino-2-methylpropanoyl)-N-(1-(4-((3-aminoazetidin-1-yl)methyl)cyclohexyl)-2-oxo-1,2-dihydropyrimidin-4-yl)piperazine-1-carboxamide hydrochloride salt], the IC50 in the test with E. coli S30 extract is 0.5 to 1 µM; in test [1] it was not below 1 µM. Besides, the MIC in the test on S. aureus (Sa) is 8 to 32 µg/mL; in the test with E. coli (Ec) it was less than 8 µg/mL; in the test with P. aeruginosa (Pa), more than 32 µg/mL; in the test with A. baumannii (Ab) it was more than 32 µg/mL; with E. faecalis (Ef) it was more than 32 µg/mL.
`CC(C)(N)C(=O)N1CCN(C(=O)Nc2ccn(C3CCC(CNC4CC5(CC(N)C5)C4)CC3)c(=O)n2)CC1` (stereo not drawn) [Compound 53, 4-(2-Amino-2-methylpropanoyl)-N-(1-(4-(((6-aminospiro[3.3]heptan-2-yl)amino)methyl)cyclohexyl)-2-oxo-1,2-dihydropyrimidin-4-yl)piperazine-1-carboxamide hydrochloride salt]: the IC50 in the test with E. coli S30 extract is less than 0.5 µM; in test [1] it was not below 1 µM. Further, the MIC with S. aureus (Sa) was less than 8 µg/mL; in the test with E. coli (Ec), 8 to 32 µg/mL; in the test on P. aeruginosa (Pa), more than 32 µg/mL; in the test with A. baumannii (Ab), more than 32 µg/mL; with E. faecalis (Ef), 8 to 32 µg/mL.
Regarding `CCN(C[C@H]1CC[C@H](n2ccc(N)nc2=O)CC1)[C@H]1CC[C@H](N)CC1` [Compound 54, 4-amino-1-((trans)-4-((((trans)-4-aminocyclohexyl)(ethyl)amino)methyl)cyclohexyl)pyrimidin-2(1H)-one], the IC50 (with E. coli S30 extract; in test [1]) was not below 1 µM each time. Moreover, the MIC in the test on S. aureus (Sa) (S. aureus, CAMHB supplemented with sodium bicarbonate 25 mM) is more than 32 µg/mL; in the test on E. coli (Ec) (E. coli, CAMHB supplemented with sodium bicarbonate 25 mM), more than 32 µg/mL; in the test with P. aeruginosa (Pa) (P. aeruginosa, CAMHB supplemented with sodium bicarbonate 25 mM), more than 32 µg/mL; in the test on A. baumannii (Ab) (A. baumannii, CAMHB supplemented with sodium bicarbonate 25 mM), more than 32 µg/mL; in the test with E. faecalis (Ef) (E. faecalis, CAMHB supplemented with sodium bicarbonate 25 mM), more than 32 µg/mL.
